Results: patent US6949566B2, “Thiazole and oxazole derivatives” (Shionogi & Co. Ltd., priority 2000, dated 2005)

What follows are compounds tested against T1, MMP-9 (Homo sapiens, UniProt P14780) (assay: Assay for inhibitory activities on MMPs (fluorogenic peptide substrate), MMP-9). Conditions: MMP-9 from HT1080 cells, activated by TPCK-Trypsin; substrate MOCAc-Pro-Leu-Gly-Leu-A2Pr(DNP)-Ala-Arg-NH2.
T1 construct: endogenous in cells; host or cells: HT1080 human fibrosarcoma cells, TPA-stimulated; enzyme purified from conditioned medium
T1 sequence (P14780 107-707 limits assumed): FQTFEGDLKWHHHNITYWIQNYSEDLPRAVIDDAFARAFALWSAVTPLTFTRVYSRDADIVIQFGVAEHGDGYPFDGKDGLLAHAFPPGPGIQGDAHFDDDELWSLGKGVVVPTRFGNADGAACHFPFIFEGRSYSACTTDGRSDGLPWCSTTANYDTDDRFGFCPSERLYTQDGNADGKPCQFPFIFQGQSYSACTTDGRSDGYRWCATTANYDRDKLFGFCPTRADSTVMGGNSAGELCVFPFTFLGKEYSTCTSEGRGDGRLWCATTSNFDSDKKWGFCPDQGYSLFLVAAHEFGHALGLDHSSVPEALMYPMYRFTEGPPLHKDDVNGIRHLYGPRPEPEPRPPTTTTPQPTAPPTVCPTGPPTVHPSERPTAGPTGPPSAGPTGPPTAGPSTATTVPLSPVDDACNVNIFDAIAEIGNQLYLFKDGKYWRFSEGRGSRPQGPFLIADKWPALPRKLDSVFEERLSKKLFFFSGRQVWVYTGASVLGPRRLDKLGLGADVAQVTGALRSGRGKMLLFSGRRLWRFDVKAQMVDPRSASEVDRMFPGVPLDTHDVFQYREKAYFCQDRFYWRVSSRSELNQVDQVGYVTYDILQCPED
Assay type: biochemical
Description: MMP-9 was isolated and purified by procedures described in as follows: Yasunori Okada, Yukio Gonoji, Katsumi Naka, Katsuro Tomita, Isao Nakanishi, Kazushi Iwata, Kyoko Yamashita, and Taro Hayakawa: Matrix metalloproteinase 9 (92-kDa gelatinase/type IV collagenase) from HT1080 human fibrosarcoma cells. Purification and activation of the precursor and enzymic properties J. Biol. Chem., 1992, 267 21712-21719, in combination with others: 1)Yasunori Okada, Tatsuhisa Morodomi, Jan J, Enghild, ko Suzuki, Atsushi Yasui, Isao Nakanishi, Guy Salvesen and Hideaki Nagase: Matrix metalloproteinase 2 from human rheumatoid synovial fibroblasts. Purification and activation of the precursor and enzymic properties. Eur. J. Biochem. 1990, 194 721-730; 2)Robin V Ward, Rosalind M Hembry, John J Reynolds and Gillian Murphy: The purification of tissue inhibitor of metalloproteinase-2 from its 72 kDa progelatinase complex. Biochem. J. 1991 278 179-187. In detail, human fibrosarcoma ATCC HT1080 cell line was cultured to confluent in Dulbecco's Modified Medium (DMEM) containing 10% fetal-calf serum at 37° C. for 48 hours. Subsequently, the medium of confluent culture was changed to serum-free DMEM medium. To obtain MMP-9, Phorbol-12-myristate-13-acetate (TPA) must be added to this serum-free DMEM medium at a concentration of 50 ng/ml. The TPA treated medium was centrifuged at 3000 rpm for 15 min and the supernatant was concentrated to 450 ml by a Toyo-Roshi UP-20 apparatus with an ultrafiltration membrane. Then, proMMP-9 in this concentrated solution was purified by using columns of Gelatin-Sepharose and Concanavalin A-Sepharose. The pool containing proMMP-9 was dialyzed, concentrated (Toyo-Roshi UP-20) and applied to columns of Sephacryl S-200 and Green A matrix for the separation from TIMPs. The obtained proMMP-9 fraction was activated by TPCK-Trypsin (Final conc. 3 μg/501 μl React Mix.).
(§1) The enzymatic activity on MMPs was analyzed by the method described in “C. Graham Knight, Frances Willenbrock and Gillian Murphy: A novel coumarin-labelled peptide for sensitive continuous assays of the matrix metalloproteinases: FEBS LETT., 296, (1992), 263-266”. The substrate MOCAc-Pro-Leu-Gly-Leu-A2Pr(DNP)-Ala-Arg-NH2 was purchased from Peptide Institute, Inc., Osaka, Japan. The measurement of the inhibitory activities (IC50) was carried out by the following four methods;
(§2) (A) Reaction with substrate, enzyme (MMPs) and inhibitor
(§3) (B) Reaction with substrate and inhibitor, without enzyme
(§4) (C) Reaction with substrate and enzyme (MMPs), without inhibitor
(§5) (D) Reaction with substrate only
(§6) IC50 values were calculated by using the following formula and each fluorescence values of above four methods (A to D). % inhibition={1−(A−B)/(C−D)}×100 IC50 means the concentration required to inhibit 50% of the enzyme activity.

Row | IC50 [nM] | Compound
1 | 135 | C[C@@H](NS(=O)(=O)c1ccc(-c2ncc(-c3ccc(Br)cc3)o2)cc1)C(=O)O [Compound A-10]
2 | 502 | CC(C)C[C@@H](NS(=O)(=O)c1ccc(-c2ncc(-c3ccc(Cl)cc3)o2)cc1)C(=O)O [Compound A-30]
3 | 2370 | CC(C)[C@H](NS(=O)(=O)c1ccc(-c2ncc(-c3ccc(Cl)cc3)o2)cc1)C(=O)O [Compound A-24]
4 | 758 | O=C(O)[C@H](Cc1ccccc1)NS(=O)(=O)c1ccc(-c2ncc(-c3ccc(Cl)cc3)o2)cc1 [Compound A-16]

These compounds were tested against T2, MMP-8 (Homo sapiens, UniProt P22894) (assay: Assay for inhibitory activities on MMPs (fluorogenic peptide substrate), MMP-8). Conditions: catalytic domain 99Phe-262Gly; substrate MOCAc-Pro-Leu-Gly-Leu-A2Pr(DNP)-Ala-Arg-NH2.
T2 construct: catalytic domain (^99Phe˜^262Gly) was amplified with PCR; His-tag; enterokinase digestion-site; made in house; host or cells: Escherichia coli
T2 sequence (P22894 99-262): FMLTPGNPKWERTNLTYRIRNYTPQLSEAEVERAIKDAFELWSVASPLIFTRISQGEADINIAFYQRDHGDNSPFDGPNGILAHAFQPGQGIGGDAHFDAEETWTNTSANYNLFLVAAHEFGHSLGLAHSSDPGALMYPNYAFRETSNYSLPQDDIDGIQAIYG
Assay type: biochemical
Description: In regard to MMP-8, catalytic domain (^99Phe˜^262Gly) was amplified with PCR using commercial available Human Bone Marrow cDNA. This was cloned in Escherichia. coli expression vector pTrc99AHE inserted with His-tag sequence and enterokinase digestion-site, induced and expressed by IPTG (Isopropyl-β-D-thiogalactopyranoside) and expressed in a insoluble fraction (Thau F. Ho, M. Walid Qoronfleh, Robert C. Wahl, Trica A. Pulvino, Karen J. Vavra, Joe Falvo, Tracey M. Banks, Patricia G. Brake and Richard B. Ciccarelli: Gene expression, purification and characterization of recombinant human neutrophil collagenase. Gene 146, (1994) 297-301, Prepared by the a improved method of this material). Isolation of MMP-8 from an insoluble fraction was carried out by dissolving in modifier (6M urea) by a usual method and purification with metal chelate chromatography. And then removing modifier (6M urea) with dialysis and refolding of the enzyme spontaneously gave activated MMP-8.
as §1, §2, §3, §4, §5, §6

Row | IC50 [nM] | Compound
5 | 97.4 | C[C@@H](NS(=O)(=O)c1ccc(-c2ncc(-c3ccc(Br)cc3)o2)cc1)C(=O)O [Compound A-10]
6 | 320 | CC(C)C[C@@H](NS(=O)(=O)c1ccc(-c2ncc(-c3ccc(Cl)cc3)o2)cc1)C(=O)O [Compound A-30]
7 | 337 | CC(C)[C@H](NS(=O)(=O)c1ccc(-c2ncc(-c3ccc(Cl)cc3)o2)cc1)C(=O)O [Compound A-24]

What follows are compounds tested against T3, MMP-13 (Homo sapiens, UniProt P45452) (assay: Assay for inhibitory activities on MMPs (fluorogenic peptide substrate), MMP-13). Conditions: catalytic domain 104Tyr-267Gly; substrate MOCAc-Pro-Leu-Gly-Leu-A2Pr(DNP)-Ala-Arg-NH2.
T3 construct: catalytic domain (^104Tyr˜^267Gly) was amplified with RT-PCR; His-tag; enterokinase digestion-site; made in house; host or cells: Escherichia coli
Assay type: biochemical
Description: (§7) In regard to MMP-13, mRNA was prepared from carcinoma cell SW1353 derived from human cartilage stimulate by IL-1, TNF and catalytic domain (^104Tyr˜^267Gly) was amplified with RT-PCR. This was cloned in Escherichia. coli expression vector pTrc99AHE inserted with His-tag sequence and enterokinase digestion-site, induced and expressed by IPTG (Isopropyl-β-D-thiogalactopyranoside) and expressed in a insoluble fraction. Isolation of MMP-13 from an insoluble fraction was carried out by dissolving in modifier (6M urea) by a usual method and purification with metal chelate chromatography (Ni Chelateing Sepharose). And then removing modifier (6M urea) with dialyze and refolding of the enzyme spontaneously gave activated MMP-13.
as §1, §2, §3, §4, §5, §6

Row | IC50 [nM] | Compound
8 | 59.2 | C[C@@H](NS(=O)(=O)c1ccc(-c2ncc(-c3ccc(Br)cc3)o2)cc1)C(=O)O [Compound A-10]
9 | 226 | CC(C)C[C@@H](NS(=O)(=O)c1ccc(-c2ncc(-c3ccc(Cl)cc3)o2)cc1)C(=O)O [Compound A-30]
10 | 678 | CC(C)[C@H](NS(=O)(=O)c1ccc(-c2ncc(-c3ccc(Cl)cc3)o2)cc1)C(=O)O [Compound A-24]
11 | 774 | O=C(O)[C@H](Cc1ccccc1)NS(=O)(=O)c1ccc(-c2ncc(-c3ccc(Cl)cc3)o2)cc1 [Compound A-16]

What follows are compounds tested against T4, MMP-2 (Homo sapiens, UniProt P08253) (assay: Assay for inhibitory activities on MMPs (fluorogenic peptide substrate), MMP-2). Conditions: purchased MMP-2; substrate MOCAc-Pro-Leu-Gly-Leu-A2Pr(DNP)-Ala-Arg-NH2.
T4 construct: purchased Calbiochem-Novabiochem International, Inc
T4 sequence (P08253 110-660): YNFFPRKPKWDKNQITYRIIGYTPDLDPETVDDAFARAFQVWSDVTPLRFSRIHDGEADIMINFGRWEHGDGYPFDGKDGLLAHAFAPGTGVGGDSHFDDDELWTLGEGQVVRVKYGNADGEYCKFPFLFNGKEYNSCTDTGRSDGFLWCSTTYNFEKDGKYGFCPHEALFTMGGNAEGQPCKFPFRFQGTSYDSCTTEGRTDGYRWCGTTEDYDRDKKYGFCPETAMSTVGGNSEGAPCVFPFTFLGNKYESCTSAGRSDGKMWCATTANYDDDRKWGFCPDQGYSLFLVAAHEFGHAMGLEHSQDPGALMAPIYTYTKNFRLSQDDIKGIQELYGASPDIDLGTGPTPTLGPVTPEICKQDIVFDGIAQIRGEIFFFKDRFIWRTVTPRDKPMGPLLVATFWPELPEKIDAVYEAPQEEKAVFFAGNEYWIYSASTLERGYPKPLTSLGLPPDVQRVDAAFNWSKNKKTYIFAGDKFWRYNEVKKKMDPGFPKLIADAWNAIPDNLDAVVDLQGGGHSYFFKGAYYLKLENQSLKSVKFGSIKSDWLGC
Assay type: biochemical
Description: MMP-2 was purchased from Calbiochem-Novabiochem International, Inc.
as §1, §2, §3, §4, §5, §6

Row | IC50 [nM] | Compound
12 | 5.46 | C[C@@H](NS(=O)(=O)c1ccc(-c2ncc(-c3ccc(Br)cc3)o2)cc1)C(=O)O [Compound A-10]
13 | 44.4 | CC(C)C[C@@H](NS(=O)(=O)c1ccc(-c2ncc(-c3ccc(Cl)cc3)o2)cc1)C(=O)O [Compound A-30]
14 | 670 | CC(C)[C@H](NS(=O)(=O)c1ccc(-c2ncc(-c3ccc(Cl)cc3)o2)cc1)C(=O)O [Compound A-24]
15 | 265 | O=C(O)[C@H](Cc1ccccc1)NS(=O)(=O)c1ccc(-c2ncc(-c3ccc(Cl)cc3)o2)cc1 [Compound A-16]

These compounds were tested against T5, MMP-12 (Homo sapiens, UniProt P39900) (assay: Assay for inhibitory activities on MMPs (fluorogenic peptide substrate), MMP-12). Conditions: catalytic domain 100Phe-263Gly; substrate MOCAc-Pro-Leu-Gly-Leu-A2Pr(DNP)-Ala-Arg-NH2.
T5 construct: catalytic domain(^100Phe˜^263Gly) was amplified with RT-PCR; His-tag; enterokinase digestion-site; made in house; host or cells: Escherichia coli
T5 sequence (P39900 100-263): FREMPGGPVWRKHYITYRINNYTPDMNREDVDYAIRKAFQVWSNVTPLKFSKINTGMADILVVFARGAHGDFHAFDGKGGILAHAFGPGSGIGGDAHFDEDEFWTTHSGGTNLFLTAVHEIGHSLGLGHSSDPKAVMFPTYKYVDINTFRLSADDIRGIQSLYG
Assay type: biochemical
Description: as §7, with “MMP-12,” for “MMP-13, mRNA was prepared from carcinoma cell SW1353 derived from human cartilage stimulate by IL-1, TNF and”, “domain(^100Phe˜^263Gly)” for “domain (^104Tyr˜^267Gly)”, “RT-PCR from Human Placenta Total RNA.” for “RT-PCR.”, “MMP-12” for “MMP-13”, “dialysis” for “dialyze”, “MMP-12.” for “MMP-13.”
as §1, §2, §3, §4, §5, §6

Row | Compound | IC50 [nM]
16 | CC(C)C[C@@H](NS(=O)(=O)c1ccc(-c2ncc(-c3ccc(Cl)cc3)o2)cc1)C(=O)O [Compound A-30] | 11.4
17 | CC(C)[C@H](NS(=O)(=O)c1ccc(-c2ncc(-c3ccc(Cl)cc3)o2)cc1)C(=O)O [Compound A-24] | 10
18 | O=C(O)[C@H](Cc1ccccc1)NS(=O)(=O)c1ccc(-c2ncc(-c3ccc(Cl)cc3)o2)cc1 [Compound A-16] | 26.2

Next, values leading:

Row | IC50 [nM] | Compound
19 | 2.42 | C[C@@H](NS(=O)(=O)c1ccc(-c2ncc(-c3ccc(Br)cc3)o2)cc1)C(=O)O [Compound A-10]
20 | 28.4 | C[C@H](NS(=O)(=O)c1ccc(-c2ncc(-c3ccc(Cl)cc3)o2)cc1)C(=O)O [Compound A-5]
